Data from patent US11214594B2, “Antimicrobial peptide having synergistic antibacterial effect with antibiotics on multidrug resistant bacteria, and use thereof” (priority 2016, dated 2022).
Values after ≈ are worked out from the molar mass of the structure shown. Where a SMILES comes first, the peptide text is derived from it.

Assays:
E. coli [1] = assay: MIC of antibiotic during combined treatment with antimicrobial peptide; type: cell-based, Escherichia coli; settings: for Antibiotic MIC, Erythromycin / Antibiotic MIC, Linezolid / Antibiotic MIC, Vancomycin: E. coli
Description: (§1) Thereafter, the MIC value of each mixed solution was determined by diluting the antibiotic solution with the MH medium, adding 50 μl of the diluted solution to each well, and performing an experiment even under a reversed condition.

MDREC 1229 = assay: microbe, parasite or virus in culture; type: cell-based, Escherichia coli
Description: (§2) For the antibacterial activity, a minimal inhibitory concentration (MIC) of a peptide in which fungus bodies were not split in an MH medium with sufficient nutrients was measured.
(§3) Specifically, the strains described in the following [Table 2] were purchased and diluted with an MH medium such that the number of bacteria was 2×10^6 colony-forming units (CFUs), 100 μl of each of the diluted strains was aliquoted into a 96-well microtiter plate, and then 100 μl of a peptide solution diluted with the MH medium (solution diluted stepwise at 2: 1) was added to each well.

E. coli [2] = assay: microbe, parasite or virus in culture; type: cell-based, Escherichia coli
Description: as §2, §3

A. baumannii = assay: MIC of antibiotic during combined treatment with antimicrobial peptide; type: cell-based, Acinetobacter baumannii; settings: for Antibiotic MIC, Erythromycin / Antibiotic MIC, Linezolid / Antibiotic MIC, Vancomycin: A. baumannii
Description: as §1

MDRST 8009 = type: cell-based, Salmonella typhimurium; settings: agent alone
Description: as §2, §3

[3] = combined with peptide at 1 μg/ml
[4] = combined with peptide at 2 μg/ml
[5] = combined with peptide at 4 μg/ml
[6] = combined with peptide at 6 μg/ml
[7] = combined with peptide at 8 μg/ml
[8] = combined with peptide at 16 μg/ml
[9] = combined with peptide at 32 μg/ml
[10] = combined with peptide at 64 μg/ml

Compound: CC[C@H](C)[C@H](NC(=O)[C@H](CCCCN)NC(=O)[C@H](Cc1c[nH]c2ccccc12)NC(=O)[C@@H](N)CCCNC(=N)N)C(=O)N[C@@H](Cc1ccccc1)C(=O)N[C@@H](CCCCN)C(=O)N[C@@H](CCCCN)C(=O)N[C@H](C(=O)N1CCC[C@H]1C(=O)N[C@@H](CCCCN)C(=O)N[C@@H](CC(C)C)C(=O)N[C@@H](CC(C)C)C(=O)N[C@@H](Cc1c[nH]cn1)C(=O)N[C@@H](CO)C(=O)N[C@@H](C)C(=O)N[C@@H](CCCCN)C(=O)N[C@@H](CCCCN)C(=O)N[C@@H](Cc1c[nH]c2ccccc12)C(N)=O)[C@@H](C)CC [PapMA-9, RWK IFK KIP KLL HSA KKW-NH2] (H-RWKIFKKIPKLLHSAKKW-NH2; N-terminus assumed)
- Synergistic effect of antibacterial activity with existing antibiotics compared with PapMA-1 (E. coli [1]; E. coli and MDREC1229): higher level than the PapMA-1 peptide
- Antibiotic MIC, Erythromycin (E. coli [1]; erythromycin combined with peptide at 1 μg/ml): 128 µg/mL
- Antibiotic MIC, Erythromycin (E. coli [1]; erythromycin combined with peptide at 2 μg/ml): 64 µg/mL
- Antibiotic MIC, Erythromycin (E. coli [1]; erythromycin combined with peptide at 4 μg/ml): 8 µg/mL
- Antibiotic MIC, Erythromycin (E. coli [1]; erythromycin combined with peptide at 6 μg/ml): 2 µg/mL
- Antibiotic MIC, Erythromycin (E. coli [1]; erythromycin combined with peptide at 8 μg/ml): 0.5 µg/mL
- Antibiotic MIC, Erythromycin (E. coli [1]; erythromycin combined with peptide at 16 μg/ml): 0.125 µg/mL
- Antibiotic MIC, Erythromycin (E. coli [1]; erythromycin combined with peptide at 32 μg/ml): 0 µg/mL
- Antibiotic MIC, Erythromycin (E. coli [1]; erythromycin combined with peptide at 64 μg/ml): 0 µg/mL
- Antibiotic MIC, Linezolid (E. coli [1]; linezolid combined with peptide at 1 μg/ml): >128 µg/mL
- Antibiotic MIC, Linezolid (E. coli [1]; linezolid combined with peptide at 2 μg/ml): >128 µg/mL
- Antibiotic MIC, Linezolid (E. coli [1]; linezolid combined with peptide at 4 μg/ml): 16 µg/mL
- Antibiotic MIC, Linezolid (E. coli [1]; linezolid combined with peptide at 6 μg/ml): 8 µg/mL
- Antibiotic MIC, Linezolid (E. coli [1]; linezolid combined with peptide at 8 μg/ml): 4 µg/mL
- Antibiotic MIC, Linezolid (E. coli [1]; linezolid combined with peptide at 16 μg/ml): 2 µg/mL
- Antibiotic MIC, Linezolid (E. coli [1]; linezolid combined with peptide at 32 μg/ml): 0 µg/mL
- Antibiotic MIC, Linezolid (E. coli [1]; linezolid combined with peptide at 64 μg/ml): 0 µg/mL
- Antibiotic MIC, Vancomycin (E. coli [1]; vancomycin combined with peptide at 1 μg/ml): >128 µg/mL
- Antibiotic MIC, Vancomycin (E. coli [1]; vancomycin combined with peptide at 2 μg/ml): >128 µg/mL
- Antibiotic MIC, Vancomycin (E. coli [1]; vancomycin combined with peptide at 4 μg/ml): 64 µg/mL
- Antibiotic MIC, Vancomycin (E. coli [1]; vancomycin combined with peptide at 6 μg/ml): 16 µg/mL
- Antibiotic MIC, Vancomycin (E. coli [1]; vancomycin combined with peptide at 8 μg/ml): 8 µg/mL
- Antibiotic MIC, Vancomycin (E. coli [1]; vancomycin combined with peptide at 16 μg/ml): 2 µg/mL
- Antibiotic MIC, Vancomycin (E. coli [1]; vancomycin combined with peptide at 32 μg/ml): 0 µg/mL
- Antibiotic MIC, Vancomycin (E. coli [1]; vancomycin combined with peptide at 64 μg/ml): 0 µg/mL
- Minimal inhibitory concentration MIC (MDREC 1229): 64 µg/mL (≈ 27.7 µM)
- Minimal inhibitory concentration MIC (E. coli [2]; 16 h): 32 µg/mL (≈ 13.9 µM)
- Antibacterial activity relative to PapMA-1 (E. coli [2]; E. coli): at least twice as high
- Synergistic effect of antibacterial activity with existing antibiotics compared with PapMA-1 (A. baumannii; A. baumannii and MDRAB 12035): higher level than the PapMA-1 peptide
- Antibiotic MIC, Erythromycin (A. baumannii; [3]): 32 µg/mL
- Antibiotic MIC, Linezolid (A. baumannii; [3]): >128 µg/mL
- Antibiotic MIC, Vancomycin (A. baumannii; [3]): >128 µg/mL
- Antibiotic MIC, Erythromycin (A. baumannii; [4]): 8 µg/mL
- Antibiotic MIC, Linezolid (A. baumannii; [4]): 128 µg/mL
- Antibiotic MIC, Vancomycin (A. baumannii; [4]): 128 µg/mL
- Antibiotic MIC, Erythromycin (A. baumannii; [5]): 4 µg/mL
- Antibiotic MIC, Linezolid (A. baumannii; [5]): 8 µg/mL
- Antibiotic MIC, Vancomycin (A. baumannii; [5]): 32 µg/mL
- Antibiotic MIC, Erythromycin (A. baumannii; [6]): 2 µg/mL
- Antibiotic MIC, Linezolid (A. baumannii; [6]): 8 µg/mL
- Antibiotic MIC, Vancomycin (A. baumannii; [6]): 16 µg/mL
- Antibiotic MIC, Erythromycin (A. baumannii; [7]): 0.25 µg/mL
- Antibiotic MIC, Linezolid (A. baumannii; [7]): 2 µg/mL
- Antibiotic MIC, Vancomycin (A. baumannii; [7]): 8 µg/mL
- Antibiotic MIC, Erythromycin (A. baumannii; [8]): 0.125 µg/mL
- Antibiotic MIC, Linezolid (A. baumannii; [8]): 0.5 µg/mL
- Antibiotic MIC, Vancomycin (A. baumannii; [8]): 2 µg/mL
- Antibiotic MIC, Erythromycin (A. baumannii; [9]): 0 µg/mL
- Antibiotic MIC, Linezolid (A. baumannii; [9]): 0 µg/mL
- Antibiotic MIC, Vancomycin (A. baumannii; [9]): 0 µg/mL
- Antibiotic MIC, Erythromycin (A. baumannii; [10]): 0 µg/mL
- Antibiotic MIC, Linezolid (A. baumannii; [10]): 0 µg/mL
- Antibiotic MIC, Vancomycin (A. baumannii; [10]): 0 µg/mL
- Minimal inhibitory concentration MIC (MDRST 8009): 64 µg/mL (≈ 27.7 µM)
